From patent US6528096B1, “Carrier mixed with additives having lubricant properties for preparing powdery pharmaceutical compositions for inhalation” (Chiesi Farmaceutical S.p.A., priority 1999, dated 2003)

Tests used:
[1] = Water contact angle and degree of molecular surface coating of carrier; assay type: physicochemical; conditions: single component, Table 6 footnote
Procedure: Advantageously, the carrier particles and the lubricant particles are mixed until the degree of molecular surface coating is more than 10% as determined by water contact angle measurement. Preferably, carrier particles and lubricant particles made of magnesium stearate are mixed until the water contact angle of the ‘coated’ carrier particles is more than 36° corresponding to more than 10% degree of molecular surface coating; more preferably, the water contact angle should be more than 50° corresponding to more than 23% decree of molecular surface coating.
40.528 kg (99.75% w/w) of α-Lactose monohydrate fraction 90-150 μm and 0.102 kg (0.25% w/w) of magnesium stearate were mixed in a Turbula mixer T 100 at 16 r.p.m. for several hours. At different mixing times samples were withdrawn and tested for uniformity of distribution of magnesium stearate, particle size, water contact angle and degree of molecular surface coating calculated according to lassie et al. (Transactions of the Faraday Society 40; 546, 1944). To validate the process, three batches (40 kg) of the carrier were prepared.

dog = experiment: Toxicity studies in dog; assay type: in vivo
healthy volunteers = experiment: Acute tolerance trial in healthy volunteers; assay type: in vivo, humans; conditions: single dose 25.72 mg lactose and 0.065 mg magnesium stearate via Pulvinal inhaler
Procedure: Furthermore, acute and long term tolerance trials were carried out to evaluate toxicity of magnesium stearate in humans.
In the former, 18 healthy volunteers, included in a double blind randomised controlled cross-over design study, received a single dose containing 25.72 mg of lactose and 0.065 mg of magnesium stearate via Pulvinal® inhaler. The introduction of 0.25% magnesium stearate in powdery pharmaceutical formulation resulted to be safe.

Question: For Magnesium stearate, which water contact angle [1] is on record?
Answer: Magnesium stearate water contact angle 118°

Question: And the “Safety of the respirable amount” value (dog)?
Answer: safe

Question: What about the “Safety, acute tolerance” value (healthy volunteers) of the same molecule?
Answer: safe

Question: With O.OC[C@H]1O[C@@H](O[C@H]2[C@H](O)[C@@H](O)[C@@H](O)O[C@@H]2CO)[C@H](O)[C@@H](O)[C@H]1O [α-Lactose monohydrate] as the molecule, how does the water contact angle [1] read?
Answer: α-Lactose monohydrate water contact angle 12°
